In ChEMBL document CHEMBL3608226, “Synthesis and biological evaluation of phaitanthrin congeners as anti-mycobacterial agents” (2015) one finds MIC data, which are given here for 29 molecules.

As a reminder, the MIC is the lowest concentration that inhibits growth of the organism. A lower MIC goes with inhibition by little substance.

Each structure is given as a SMILES string. Converted amounts (≈) assume the structure as drawn.

The first assay relates to Mycobacterium tuberculosis. The assay is described as follows: Antimycobacterial activity against Mycobacterium tuberculosis H37Rv. The class given is functional.
Details: not given
For `O=C1c2ccccc2-n2c1nc1ccccc1c2=O` [TRYPTANTHRIN], the MIC was 1 µg/mL (≈ 4.03 µM).

A further assay deals with Mycolicibacterium smegmatis. The assay is described as follows: Antimycobacterial activity against Mycobacterium smegmatis. The class given is functional.
Details: not given
The molecule `O=C1c2ccccc2-n2c1nc1ccccc1c2=O` [TRYPTANTHRIN] came in with an MIC of 6 µg/mL (≈ 24.2 µM).

For a further assay, the system named is Mycobacterium tuberculosis. The assay is described as follows: Antimycobacterial activity against Mycobacterium tuberculosis H37Rv ATCC 27294 after 28 days by agar dilution method. In kind it is functional. As to conditions: H37Rv ATCC 27294, 672 h. For orientation: In agar dilution, organisms are placed on agar that contains the substance at set levels.
Molecule `O=C(CC1(O)c2ccccc2-c2nc3ccccc3nc21)c1ccc(Br)cc1` (racemic) displayed an MIC of 14.4 µM (≈ 6.22 µg/mL).
The same measure, in the same setting: the value for `N#Cc1ccc(C(=O)CC2(O)c3ccccc3-n3c2nc2ccccc2c3=O)cc1` (racemic) was 15.9 µM (≈ 6.26 µg/mL).
On the same count and under the same terms, the result for `Brc1ccc(C2=NN(c3ccccc3)C3(C2)c2ccccc2-c2nc4ccccc4nc23)cc1` (racemic) reads 12.4 µM (≈ 6.25 µg/mL); that for `O=c1c2ccccc2[nH]c2c(-c3c(-c4cccs4)[nH]c4ccccc34)c3ccccc3n12`, 7.3 µM (≈ 3.15 µg/mL).
The same measure, in the same setting: the value for `N#Cc1ccc(-c2[nH]c3ccccc3c2-c2c3ccccc3n3c(=O)c4ccccc4[nH]c23)cc1` was 7.06 µM (≈ 3.18 µg/mL).
Molecule `Nc1ccc(-c2[nH]c3ccccc3c2-c2c3ccccc3n3c(=O)c4ccccc4[nH]c23)cc1` had an MIC of 14.2 µM (≈ 6.24 µg/mL).
Same read-out and setting: the value for `Nc1ccc(C2=NN(c3ccccc3)C3(C2)c2ccccc2-c2nc4ccccc4nc23)cc1` (racemic) was 7.17 µM (≈ 3.15 µg/mL).
Still for that read-out and setting: the value for `O=C(O)c1cn(C2CC2)c2cc(N3CCNCC3)c(F)cc2c1=O` [CIPROFLOXACIN] was 12.6 µM (≈ 4.17 µg/mL); that for `CC[C@@H](CO)NCCN[C@@H](CC)CO` [ETHAMBUTOL] was 15.3 µM (≈ 3.13 µg/mL); that for `Nc1ccccc1C(=O)CC1(O)c2ccccc2-n2c1nc1ccccc1c2=O` (racemic) was 3.99 µM (≈ 1.53 µg/mL).
On the same count and under the same terms, the result for `O=C(CC1(O)c2ccccc2-n2c1nc1ccccc1c2=O)c1ccccc1NC(=S)Nc1ccc([N+](=O)[O-])cc1` (racemic) reads 5.98 µM (≈ 3.37 µg/mL).
`O=C(CC1(O)c2ccccc2-n2c1nc1ccccc1c2=O)c1ccccc1` (racemic): 16.9 µM (≈ 6.23 µg/mL) was the least that counted as inhibitory (MIC).
Still for that read-out and setting: the result for `O=c1c2ccccc2[nH]c2c(-c3c(-c4ccccc4O)[nH]c4ccccc34)c3ccccc3n12` reads 29.4 µM (≈ 13 µg/mL); that for `Nc1ccccc1C(=O)CC1(O)c2ccccc2-c2nc3ccccc3nc21` (racemic), 17 µM (≈ 6.25 µg/mL).
Still for that read-out and setting: the result for `CCc1ccc(-c2[nH]c3ccccc3c2-c2c3ccccc3n3c(=O)c4ccccc4[nH]c23)cc1` reads 12.3 µM (≈ 5.59 µg/mL).
As for `Nc1ccccc1-c1[nH]c2ccccc2c1-c1c2ccccc2n2c(=O)c3ccccc3[nH]c12`, the MIC came to 6.18 µM (≈ 2.72 µg/mL).
Still for that read-out and setting: the value for `Nc1ccc(C(=O)CC2(O)c3ccccc3-n3c2nc2ccccc2c3=O)cc1` (racemic) was 16.3 µM (≈ 6.26 µg/mL); that for `O=C(CC1(O)c2ccccc2-n2c1nc1ccccc1c2=O)c1ccc(F)cc1` (racemic) was 8.85 µM (≈ 3.42 µg/mL).
The same measure, in the same setting: the value for `Nc1ccc(C(=O)CC2(O)c3ccccc3-c3nc4ccccc4nc32)cc1` (racemic) was 8.45 µM (≈ 3.1 µg/mL); that for `CCc1ccc(C(=O)CC2(O)c3ccccc3-n3c2nc2ccccc2c3=O)cc1` (racemic) was 7.88 µM (≈ 3.12 µg/mL).
The same measure, in the same setting: the value for `O=C(CC1(O)c2ccccc2-n2c1nc1ccccc1c2=O)c1ccccc1O` (racemic) was 16.2 µM (≈ 6.24 µg/mL); that for `O=C(CC1(O)c2cccc(Br)c2-n2c1nc1ccccc1c2=O)c1ccc(Br)cc1` (racemic) was 11.9 µM (≈ 6.24 µg/mL).
For `O=C(CC1(O)c2ccccc2-n2c1nc1ccccc1c2=O)c1ccc(Br)cc1` (racemic), the minimum inhibitory concentration (MIC) amounted to 112 µM (≈ 50 µg/mL).
The same measure, in the same setting: the result for `O=c1c2ccccc2[nH]c2c(-c3c(-c4ccc(F)cc4)[nH]c4ccccc34)c3ccccc3n12` reads 27.7 µM (≈ 12.3 µg/mL); that for `O=C(CC1(O)c2ccccc2-n2c1nc1ccccc1c2=O)c1cccs1` (racemic), 16.7 µM (≈ 6.25 µg/mL); that for `O=c1c2ccccc2[nH]c2c(-c3c(-c4ccccc4)[nH]c4ccccc34)c3ccccc3n12`, 8.58 µM (≈ 3.65 µg/mL).
Molecule `Nc1ccccc1C1=NN(c2ccccc2)C2(C1)c1ccccc1-c1nc3ccccc3nc12` (racemic) gave an MIC of 56.9 µM (≈ 25 µg/mL).
In the case of `O=c1c2ccccc2[nH]c2c(-c3c(-c4ccc(Br)cc4)[nH]c4ccccc34)c3ccccc3n12`, the MIC is 56.4 µM (≈ 28.5 µg/mL).

A further assay concerns Mycobacterium avium. The assay is described as follows: Antimycobacterial activity against Mycobacterium avium. In kind it is functional.
Details: not given
On to `O=C1c2ccccc2-n2c1nc1ccccc1c2=O` [TRYPTANTHRIN], for which 4 µg/mL (≈ 16.1 µM) was the least that counted as inhibitory (MIC).
